Measured values taken from US20100092456A1, “METHODS OF TREATMENT” (priority 2006, published 2010).
No end group written: not given here.

Tests used:
[1] = system: nuclear PtdIns4P and PtdIns5P in differentiated MEL cells; test: Mass assay of nuclear PtdIns4P and PtdIns5P in differentiated MEL cells; type: cell-based, Murine; conditions: NAC 5 mM or BSO 100 μM for 4 hours, H2O2 500 μM for 15 minutes, vs control-treated cells
Description: B) Differentiated MEL cells were treated with NAC (5 mM) or BSO (100 μM), each for 4 hours, or H2O2 (500 μM) for 15 minutes prior to the isolation of intact nuclei. A mass assay was used to determine the levels of PtdIns4P and PtdIns5P. The results are expressed as % of control-treated differentiated MEL cells and are calculated from 3 independent experiments.
MEL, HEK 293 and HT1080 cells were maintained in routine culture using 10% FCS in DMEM. When required, differentiated MEL cells were prepared by the addition of 1.5% DMSO to the culture medium for a period of 4 days. MEL cells were transfected using Effectene (Qiagen), HEK 293 cells with calcium phosphate and HT1080 with LT1 (Mirus corporation). The following plasmids were used: pEGFP, pCDNA3 (both from Clontech), pCDNA3-Flag-MKK6+ and pCDNA3-Flag-MKK6-(from Dr. M. Schmidt, The Netherlands Cancer Institute), pSuper (from Dr. R. Agami, The Netherlands Cancer Institute), pCDNA3-EGFP-IpgD/IpgE, pCDNA3-EGFP-PIP kinase typeIIβ, and RNAi for type II β PIP kinase (termed pSuper-IIβRNAi). The targeting sequence for the latter was […]. Irradiation of the cells with 254 nm UV-C light (0-200 J/m) or gamma rays (0-40 Gy, from a Cesium 137 source) was performed using 6-well or 10 cm plastic petri dishes with a depth of medium covering the cells not exceeding 3-4 mm. Thereafter, the cells were returned to normal culture conditions for 30 minutes before subcellular fractionation was started. To determine long terms effects of UV and gamma irradiation the cells were returned to normal culture conditions for up to 48 hours.
MEL cells were washed, twice in ice cold PBS before their fractionation using a detergent-free hypotonic buffer. This method yields a mixed cytosol and membrane fraction and intact nuclei after separation using a sucrose cushion. MEL cell nuclei were fractionated into nucleoplasm and the CEF using modifications of a previously published method. Briefly, intact MEL cell nuclei were resuspended in ice cold hypotonic buffer (3 mM EDTA, 0.2 mM EGTA and 1 mM DTT pH 7.85, with protease inhibitors) followed by forced passage (12 times) through a 25 gauge needle. After centrifugation (1700 g) the supernatant (the nucleoplasm) was saved. The pellet (CEF) was washed twice before resuspending by sonication in 10 mM TrisHCl, 10% sucrose, 10 mM MgCl2 pH 7.4, with protease inhibitors. The protein content of all fractions was determined using the Bradford reagent (BioRad). PtdIns4P and PtdIns5P were measured using in vitro mass assays employing recombinant type I and type II PIP kinases, respectively. The product PtdIns(4,5)P2 was separated by TLC. The amount of radioactivity found in PtdIns(4,5)P2 was proportional to the amount of PtdInsP isomer in the neomycin affinity-purified lipid extract.
However, no studies have determined a role for nuclear phosphoinositides or defined downstream protein targets mediating phosphoinositide-stress activated pathways. To study changes in nuclear phosphoinositides in response to cellular stress, we used Murine erythroleukaemia (MEL) cells as a model system because preparations of nuclei from these cells have been proven to be of high purity. To visualise changes in phosphoinositides, various independent methods were used. The mass level of both PtdIns4P and PtdIns5P were measured using an assay that relies on the differential in vitro specificities of type I and type II PIP kinases. […] Gamma irradiation (10 Gy) led to a small (approximately 20%) decrease in the PtdIns4P level but no detectable change in the level of PtdIns5P in whole nuclei (FIG. 1a). To determine if nuclear PtdInsPs were regulated by oxidative stress we treated differentiated MEL cells with H2O2, BSO (L-buthionine[S,R]-sulphoximine, a glutamyl-cysteine synthetase inhibitor, which increases intracellular reactive oxygen species (ROS)) or NAC. (N-acetyl-cysteine, which increases cellular glutathione levels and cell' capability to deal with ROS). […]

ING2 = test: Western blot of endogenous ING2 associated with the CEF of MEL cells; type: cell-based, Murine; conditions: MEL cells; 200 J/m UV; NAC 5 mM 4 hours, wortmannin 200 nM and 5 μM, curcumin 100 μM
Description: FIG. 4. A) Exponentially growing MEL cells were irradiated with either 200 J/m of UV light or 10 Gy of gamma radiation. After 30 minutes the CEF was isolated and the subjected to SDS-PAGE followed by transfer of the separated proteins to a nitrocellulose membrane. Western blotting for endogenous ING2 and histone 4 proteins was performed. Representative western blots are shown. B) Exponentially growing MEL cells were incubated in the absence or presence of N-acetyl cysteine (NAC) (5 mM) for 4 hours prior to a control irradiation or exposed to 200 J/m of UV light before the isolation of the CEF. Differentiated MEL cells were incubated in the absence or presence of H2O2 (500 μM) for 15 minutes prior to the isolation of the CEF. Proteins in the CEF were subjected to SDS-PAGE followed by transfer to a nitrocellulose membrane. Western blotting for endogenous ING2 and histone 4 proteins was performed. Representative western blots are shown. C) MEL cells were preincubated with either vehicle, wortmannin (200 nM and 5 μM) or curcumin (100 μM) were irradiated with 200 J/m of UV light. After 30 minutes the CEF was isolated and proteins were subjected to SDS-PAGE followed by transfer to a nitrocellulose membrane. Western blotting for endogenous ING2 and histone 4 proteins was performed. Representative western blots are shown. D) The CEF from transiently transfected MEL cells with either pSuper or pSuper-IIβRNAi was prepared. Proteins in the CEF were subjected to SDS-PAGE followed by transfer to a nitrocellulose membrane. […] Proteins were analysed by standard western blotting procedures employing the following antibodies: anti-tubulin and anti-flag (both from Sigma), anti-actin (Chemicon International), anti-histone 4 (Upstate Biotechnology), anti-phospho p54, anti-phospho p46, anti-phospho p38, total p54, total p46 and total p38 (all from Cell Signalling Technology) anti-ING2, anti EGFP (Clontech), anti-type II β PIP kinase, anti-GST and anti-myc (both generated in house).

type II β PIP kinase = test: Type II PIP kinase activity in immunoprecipitates using PtdIns5P as substrate; type: cell-based
Description: FIG. 3. A) MEL cells were either untransfected or transfected to express myc-type II b PIP kinase. After 40 hours the cells some of the cells were irradiated with 200 J/m of UV light before reculturing for varying times indicated in the figure. The cells were collected and endogenous type II PIP kinase was immunoprecipitated from whole cell lysates using an anti-pan type II b PIP kinase antibody or an anti-myc antibody. Type II PIP kinase activity in the immunoprecipitates was determined using PtdIns5P as the substrate. The results are calculated from 3 independent experiments.
To test this hypothesis endogenous type II PIP kinases were immunoprecipitated from control-treated and UV-irradiated MEL cells and their activities were measured using PtdIns5P as a substrate. […] As the antibody used to immunoprecipitate recognises all type II PIP kinase isoforms, we transfected MEL cells with myc-tagged type II β PIP kinase and measured its activity in immunoprecipitates in response to UV irradiation. […] UV irradiation is known to regulate both stress-activated protein kinases (SAPKs) and mitogen-activated protein kinases (MAPKs) and therefore we determined if any of these UV induced pathways impinged on type II β PIP kinase activity. […] Therefore we assessed whether activation of the p38 pathway alone could mediate type II β PIP kinase inhibition. […]

MEL cells = test: MEL cell viability and cell cycle profile; type: cell-based, Murine; conditions: compound alone
Description: Ethanol fixed cells were incubated with prodium iodide (20 μg/ml) and RNAse (10 μg/ml) before cell cycle analysis by flow cytometry. Proteins were analysed by standard western blotting procedures employing the following antibodies: anti-tubulin and anti-flag (both from Sigma), anti-actin (Chemicon International), anti-histone 4 (Upstate Biotechnology), anti-phospho p54, anti-phospho p46, anti-phospho p38, total p54, total p46 and total p38 (all from Cell Signalling Technology) anti-ING2, anti EGFP (Clontech), anti-type II β PIP kinase, anti-GST and anti-myc (both generated in house).
To investigate the sub-nuclear localisation of UV-induced nuclear PtdInsPs, we fractionated nuclei to generate nucleoplasm (containing nuclear membranes and soluble nuclear material) and the chromatin enriched fraction (CEF) (FIG. 1c inset). […] Thus, the PtdInsP pool present in the CEF is a target for regulation in response to cellular stress.

[2] = biological target: T1, PtdIns(4,5)P—F PH domain complex (Homo sapiens, UniProt P51178); test: Displacement of PtdIns(4,5)P—F from the PH domain complex by unlabelled lipids; type: binding
T1 construct: GST-tagged PLCδ1 Pleckstrin homology (PH) domain protein expressed and purified in-house in E. Coli; made in house; host or cells: E. coli
T1 sequence (P51178 21-130 limits assumed): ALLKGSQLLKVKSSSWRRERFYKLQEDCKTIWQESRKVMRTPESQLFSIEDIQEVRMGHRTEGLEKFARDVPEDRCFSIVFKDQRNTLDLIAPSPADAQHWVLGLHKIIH
Description: FIG. 7. A 10 nM-1 uM PtdIns(4,5)P—F PH domain complex was incubated with increasing concentrations of unlabelled PtdIns(4,5) P2 (circles) and unlabelled PtdIns5P (squares). The unlabelled product disrupts the complex fully at 1 mM, substrate has no effect at 16 mM, (duplicates).
FIG. 20: A PtdIns(4,5)P—F PH domain complex (10 nM/500 nM) was incubated with increasing concentrations of unlabelled PtdIns(4,5) P2 (triangles) and unlabelled PtdIns4P (diamonds). The unlabelled product disrupts the complex fully at 750 nM, substrate has no effect at 5 μM.

[3] = system: PtdIns(4,5)P2 in HeLa cells; test: PtdIns(4,5)P2 levels visualised with GFP-PH domain of PLCdelta1 probe in HeLa cells; type: cell-based; conditions: transient, levels quickly recover
From the text: Changes in intracellular PtdIns(4,5)P2 levels following stimulation with neurokinin A were visualised in real time using a fusion protein of GFP and the PH domain of PLCdelta1 as a probe. GFP PLC delta 1 is a highly specific in vivo probe for PIP2 in cells.
HeLa cells were transiently transfected with an expression plasmid encoding a fusion protein of GFP and the PH domain of PLCdelta1.
HeLa cells were transiently transfected with an expression plasmid encoding a fusion protein of GFP and the pleckstrin homology domain of PLCdelta1. GFP PLC delta1 is a highly specific in vivo probe for PtdIns(4,5)P2 in cells. Results are in FIG. 10.

Compound: CCCCS(=N)(=O)CCC(N)C(=O)O [BSO, L-buthionine[S,R]-sulphoximine]
- level of nuclear PtdIns4P [1]: increased
- level of nuclear PtdIns5P [1]: increased

Compound: CC(=O)N[C@@H](CS)C(=O)O [NAC, N-acetyl-cysteine]
- UV-induced translocation of endogenous ING2 to the CEF (ING2): did not block
- level of nuclear PtdIns4P [1]: lowered
- level of nuclear PtdIns5P [1]: lowered

Compound: C[S+]([O-])c1ccc(-c2nc(-c3ccncc3)c(-c3ccc(F)cc3)[nH]2)cc1 (centres unmarked) [SB 203580]
- UV light-induced inhibition of type II β PIP kinase activity (type II β PIP kinase; pre-treatment of MEL cells): blocked

Compound: COc1ccc(C[C@H]2NC[C@H](O)[C@H]2OC(C)=O)cc1 [anisomycin]
- inhibition of type II β PIP kinase activity (type II β PIP kinase; treatment of cells): approximately 50%

Compound: COC[C@H]1OC(=O)c2coc3c2[C@@]1(C)C1=C(C3=O)[C@@H]2CCC(=O)[C@@]2(C)C[C@H]1OC(C)=O [wortmannin]
- effect on the cell cycle profile (MEL cells; MEL cells): no effect
- effect on MEL cell viability (MEL cells): no effect

Compound: D-myo-Phosphatidylinositol 4-phosphate [PtdIns4P]
- effect on the complex ([2]; at 5 μM, PtdIns(4,5)P—F PH domain complex (10 nM/500 nM) (FIG. 20)): no effect

Compound: PtdIns5P
- effect on the complex ([2]; 10 nM-1 uM PtdIns(4,5)P—F PH domain complex (FIG. 7)): no effect

Compound: neurokinin A (HKTDSFVGLM; ends and bridges not checked; UniProt P20366 98-107, looked up) [growth factor used to stimulate PtdIns(4,5)P2 depletion]
- PtdIns(4,5)P2 levels (GFP-PH probe at plasma membrane) after growth factor stimulation [3]: depletion

Compound: phosphatidylinositol 4,5-bisphosphate [PtdIns(4,5) P2]
- concentration at which unlabelled lipid disrupts the complex fully ([2]; 10 nM-1 uM PtdIns(4,5)P—F PH domain complex, duplicates (FIG. 7)): 1 mM
- concentration at which unlabelled lipid disrupts the complex fully ([2]; PtdIns(4,5)P—F PH domain complex (10 nM/500 nM) (FIG. 20)): 0.00075 mM
